Test results from patent US12421242B2, “Substituted tetrahydropyrrolo-pyridinone compounds and their use in treating medical conditions” (Karuna Therapeutics, Inc., priority 2022, dated 2025).

Legend:
[1] = molecular target: T1, hM4 receptors (Homo sapiens, UniProt P08173); assay: Human M4 PAM pERK assay; type: cell-based; details: PAM mode
T1 construct: expressed in transfected cells; host or cells: CHO cells
T1 sequence (P08173 1-479): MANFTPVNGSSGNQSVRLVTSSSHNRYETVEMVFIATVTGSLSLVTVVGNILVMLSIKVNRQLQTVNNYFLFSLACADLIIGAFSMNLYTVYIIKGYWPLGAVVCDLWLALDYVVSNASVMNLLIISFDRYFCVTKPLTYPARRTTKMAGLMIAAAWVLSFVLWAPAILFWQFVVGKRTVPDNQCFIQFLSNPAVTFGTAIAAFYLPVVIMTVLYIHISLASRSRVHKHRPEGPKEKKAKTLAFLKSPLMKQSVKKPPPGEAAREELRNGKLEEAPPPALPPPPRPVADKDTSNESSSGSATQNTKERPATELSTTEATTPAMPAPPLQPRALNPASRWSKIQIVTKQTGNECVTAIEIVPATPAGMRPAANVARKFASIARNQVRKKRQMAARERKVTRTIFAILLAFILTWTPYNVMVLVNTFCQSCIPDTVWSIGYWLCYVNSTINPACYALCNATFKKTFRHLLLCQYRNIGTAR
Experimental: (§1) Chinese hamster ovary (CHO) cells expressing either hM4 or rM4 receptors were frozen in assay ready vials (5×10^6 cells/vial) after bulking-up in culture. The day before an assay, vial(s) were thawed and cells seeded in 384 well white proxiplates at 1000/well for hM4 cells and at 2000/well for rM4 cells, in 10 μL of growth media (Hams/F12 with glutamax and 10% FCS) and incubated overnight at 37° C./5% CO2.
(§2) On the following morning, the growth media was removed by ‘flicking out’ over a bin, patting the inverted plate onto tissue, and then replacing with 10 μL of wash media (Hams/F12 with glutamax and 8 mM HEPES, NB: serum free). Then, the wash media was removed in the same way and replaced with 8 μL/well of the serum free media. Plates were then re-incubated for a further 4 hours at 37° C./5% CO2.
(§3) Compounds for testing were solubilized to 10 mM in DMSO and compound addition plates, consisting of ten-point concentration response curves (CRC) in duplicate points (10 μM top concentration, […]), were prepared by acoustic dispensing and the compound management group.
(§4) After the 4-hour incubation in serum free media, a 4 μL aliquot of the 3× compound solution containing an EC20 of acetylcholine (10 nM final concentration) was added to the cell plate using a 384 well plate to plate transfer. Then, the plate lid was replaced, and the cells incubated for 5 mins at 37° C./5% CO2. Following this final incubation, all cellular processes were stopped by the addition of 4 μL/well of lysis and blocking buffer and plates were incubated for 30 minutes at RT on an orbital shaker (gentle setting). Then, a final addition of 4 μL/well of antibody detection mix, containing both the Europium-Cryptate (donor) and d2 (acceptor) tagged detection components, was added followed by a further 2-hour incubation at RT, and then the plate was read using a TR-FRET (time resolved fluorescence resonance energy transfer) based protocol.

[2] = molecular target: T2, rM4 receptors (Rattus norvegicus, UniProt P08485); assay: Rat M4 PAM pERK assay; type: cell-based; details: PAM mode
T2 construct: expressed in transfected cells; host or cells: CHO cells
T2 sequence (P08485 1-478): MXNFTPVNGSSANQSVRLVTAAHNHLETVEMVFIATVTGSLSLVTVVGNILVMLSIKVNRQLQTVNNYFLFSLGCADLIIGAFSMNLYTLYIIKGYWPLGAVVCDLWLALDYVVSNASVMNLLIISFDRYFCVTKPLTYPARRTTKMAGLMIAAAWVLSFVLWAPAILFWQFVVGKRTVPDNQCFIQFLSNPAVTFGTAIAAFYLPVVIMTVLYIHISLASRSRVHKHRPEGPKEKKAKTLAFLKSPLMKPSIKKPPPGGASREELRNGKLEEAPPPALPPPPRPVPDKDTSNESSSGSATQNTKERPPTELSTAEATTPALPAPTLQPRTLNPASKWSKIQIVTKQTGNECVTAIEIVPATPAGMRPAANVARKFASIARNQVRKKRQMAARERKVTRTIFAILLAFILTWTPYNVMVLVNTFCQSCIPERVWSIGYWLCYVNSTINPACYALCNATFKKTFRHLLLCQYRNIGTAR
Experimental: as §1, §2, §3, §4

[3] = molecular target: T3, human M4 receptor (Homo sapiens, UniProt P08173); assay: M4 GTPγS PAM assay; type: biochemical; details: CHO-K1 membranes expressing human M4, with EC20 acetylcholine (40 nM)
T3 construct: expressed in transfected cells
T3 sequence (P08173 1-479): T1 sequence (P08173 1-479)
Experimental: The M4 GTPγS PAM method was used. Membranes were prepared for GTPgS binding assays from CHO-K1 cells stably expressing human M4 receptor. Briefly, cells were grown in 5-layer cell culture flasks. Cells were washed with 50 mL of PBS and then dissociated with 0.05% trypsin. Dissociated cells were then collected by centrifugation at 650×g for 8 minutes at 4° C. Pellets were washed again in PBS by centrifugation and resuspended in 30 mL of 20 mM HEPES, 10 mM EDTA, pH 7.4. After sitting on ice for 30 min, membranes were collected by centrifugation at 50000×g for 15′ at 4° C., resuspended in 30 mL of 20 mM HEPES, 0.1 mM EDTA, pH 7.4 and collected again by centrifugation. Pellets were then washed twice by centrifugation in 30 mL of 20 mM HEPES, pH 7.4, and stored at −80° C. until the day of the assay. On the day of the assay, pellets were thawed on ice and resuspended in 1 mL of 20 mM HEPES, pH 7.4, 10 mM MgCl2, 100 mM NaCl using dounce homogenization. Membrane protein concentration is determined by BCA protein assay (Promega, Madison, WI) according to Promega guidelines.
On the day of the assay, serial dilutions of test PAM compounds were brought up in assay buffer (20 mM HEPES, 10 mM MgCl2, 100 mM NaCl) at 4× final assay concentration. […] of membrane homogenates (containing […] of membrane protein) were prepared in assay buffer supplemented with GDP at 4× final assay concentration (final assay concentration of GDP is 5 uM for M2 and 0.1 uM for M4) and dispensed into 96 well polypropylene, U-bottom Greiner plates. […] of vehicle or test PAM compound at 4× of final assay concentration diluted in the assay buffer were added to membrane and plates are incubated for 10-15 minutes at room temperature with gentle shaking. Then, […] of EC20 acetylcholine in assay buffer at 4× final assay concentration was added to assay plates (EC20 final assay concentrations was 40 nM for human M4).
Plates were then incubated, with shaking, for an additional 10-15 minutes. 25 mL of 0.4 nM ^35S-GTP (Perkin Elmer, Waltham, MA) in assay buffer was added to assay mixtures. The binding reaction is left on the shaker for 1 hour at room temperature. Membranes in assay reactions were then transferred to GF/C filter plates (Unifilter, Perkin Elmer) and washed three times using a FilterMate Harvester (Perkin Elmer) with cold assay buffer containing no GDP. Filter plates were then dried at 40° C. overnight followed by the addition of […] of Beta Plate Scintillation liquid. Plates are top and bottom sealed before being read on TopCount scintillation counter (Perkin Elmer, Waltham, MA).

| Compound | EC50 [1] | EC50 [2] | EC50 [3] |
| --- | --- | --- | --- |
| COc1c2c(n(C)c(=O)c1C)CN(C(=O)c1cnn(C(F)(F)F)c1)C2C (racemic) [Compound I-82, 4-Methoxy-1,3,5-trimethyl-6-(1-(trifluoromethyl)-1H-pyrazole-4-carbonyl)-1,5,6,7-tetrahydro-2H-pyrrolo[3,4-b]pyridin-2-one] | 0.1 to 0.5 µM | 0.5 to 2 µM | 0.1 to 0.5 µM |
| COc1c2c(n(C)c(=O)c1Cl)CN(C(=O)c1cnn(C(F)(F)F)c1)C2C (single isomer, unassigned) [Compound I-74] | < 0.1 µM | 0.5 to 2 µM | 0.5 to 2 µM |
| COc1c2c(n(C)c(=O)c1Cl)CN(C(=O)c1cnn(C(F)(F)F)c1)C2C (single isomer, unassigned) [Compound I-75] | > 2 µM | > 2 µM | > 2 µM |
| COc1cc(=O)n(C)c2c1C(C)N(C(=O)c1cnn(C(F)(F)F)c1)C2 (single isomer, unassigned) [Compound I-80] | 0.1 to 0.5 µM | > 2 µM | > 2 µM |
| COc1cc(=O)n(C)c2c1C(C)N(C(=O)c1cnn(C(F)(F)F)c1)C2 (single isomer, unassigned) [Compound I-81] | > 2 µM | > 2 µM | > 2 µM |
| COc1c2c(n(C)c(=O)c1C)CN(C(=O)c1cnn(C(F)(F)F)c1)C2C (single isomer, unassigned) [Compound I-83] | < 0.1 µM | 0.5 to 2 µM | 0.1 to 0.5 µM |
| COc1c2c(n(C)c(=O)c1C)CN(C(=O)c1cnn(C(F)(F)F)c1)C2C (single isomer, unassigned) [Compound I-84] | 0.5 to 2 µM | > 2 µM | > 2 µM |
| Cc1cc(=O)n(C)c2c1C(C)N(C(=O)c1cnn(C(F)(F)F)c1)C2 (single isomer, unassigned) [Compound I-92, 1,4,5-Trimethyl-6-(1-(trifluoromethyl)-1H-pyrazole-4-carbonyl)-1,5,6,7-tetrahydro-2H-pyrrolo[3,4-b]pyridin-2-one] | > 2 µM | > 2 µM | > 2 µM |
| Cc1cc(=O)n(C)c2c1C(C)N(C(=O)c1cnc(C(F)(F)F)s1)C2 (single isomer, unassigned) [Compound I-94] | > 2 µM | > 2 µM | > 2 µM |
| Cc1cc(=O)n(C)c2c1C(C)N(C(=O)c1cnc(C(F)(F)F)s1)C2 (single isomer, unassigned) [Compound I-95] | 0.1 to 0.5 µM | > 2 µM | 0.5 to 2 µM |
| Cc1cc(=O)n(C)c2c1C(C)N(C(=O)c1cnc(C3CC3)s1)C2 (single isomer, unassigned) [Compound I-96] | > 2 µM | > 2 µM | > 2 µM |
| Cc1cc(=O)n(C)c2c1CN(C(=O)c1cnn(C)c1)C2C (single isomer, unassigned) [Compound I-106] | > 2 µM |  | > 2 µM |
| Cc1c2c(n(C)c(=O)c1Cl)CN(C(=O)c1cn(C)c(C)n1)C2 [Compound I-11] | > 2 µM |  | > 2 µM |
| Cc1c2c(n(C)c(=O)c1Cl)CN(C(=O)c1cncc(C(F)(F)F)c1)C2 [Compound I-48] | > 2 µM |  | > 2 µM |
| COc1c2c(n(C)c(=O)c1C)CN(C(=O)c1cnn(CC(F)(F)F)c1)C2 [Compound I-85, 4-Methoxy-1,3-dimethyl-6-(1-(2,2,2-trifluoroethyl)-1H-pyrazole-4-carbonyl)-1,5,6,7-tetrahydro-2H-pyrrolo[3,4-b]pyridin-2-one] | 0.5 to 2 µM | > 2 µM |  |
| COc1c2c(n(C)c(=O)c1C)CN(C(=O)c1cnc(CC3CC3)s1)C2 [Compound I-86] | 0.1 to 0.5 µM | > 2 µM |  |
| CCOc1c2c(n(C)c(=O)c1C)CN(C(=O)c1cnn(C(F)(F)F)c1)C2 [Compound I-88, 4-Ethoxy-1,3-dimethyl-6-(1-(trifluoromethyl)-1H-pyrazole-4-carbonyl)-1,5,6,7-tetrahydro-2H-pyrrolo[3,4-b]pyridin-2-one] | < 0.1 µM | > 2 µM |  |
| CSc1c2c(n(C)c(=O)c1C)CN(C(=O)c1cnc(CC3CC3)s1)C2 [Compound I-91] | 0.1 to 0.5 µM | > 2 µM |  |
| Cc1cc(=O)n(C)c2c1C(C)N(C(=O)c1cnn(C(F)(F)F)c1)C2 (stereo not drawn) [Compound I-93] | < 0.1 µM | > 2 µM |  |
| Cc1cc(=O)n(C)c2c1CN(C(=O)c1cnn(C)c1)C2C (stereo not drawn) [Compound I-105, 1,4,7-Trimethyl-6-(1-methyl-1H-pyrazole-4-carbonyl)-1,5,6,7-tetrahydro-2H-pyrrolo[3,4-b]pyridin-2-one] | > 2 µM |  | > 2 µM |
| Cc1c2c(n(C)c(=O)c1C(F)(F)F)CN(C(=O)c1cnn(C)c1)C2 [Compound I-110, 1,4-Dimethyl-6-(1-methyl-1H-pyrazole-4-carbonyl)-3-(trifluoromethyl)-1,5,6,7-tetrahydro-2H-pyrrolo[3,4-b]pyridin-2-one] | 0.1 to 0.5 µM | > 2 µM |  |
| Cc1c2c(n(C)c(=O)c1C)CN(C(=O)c1ccc3nc(C4CC4)sc3c1)C2 [Compound I-111, 6-(2-Cyclopropylbenzo[d]thiazole-6-carbonyl)-1,3,4-trimethyl-1,5,6,7-tetrahydro-2H-pyrrolo[3,4-b]pyridin-2-one] | > 2 µM | 0.1 to 0.5 µM |  |
| Cc1c2c(n(C)c(=O)c1F)CN(C(=O)c1cnn(C(F)(F)F)c1)[C@@H]2C [Compound I-114, (R)-3-Fluoro-1,4,5-trimethyl-6-(1-(trifluoromethyl)-1H-pyrazole-4-carbonyl)-1,5,6,7-tetrahydro-2H-pyrrolo[3,4-b]pyridin-2-one] | < 0.1 µM | 0.1 to 0.5 µM |  |
